Measurements reported in patent publication US10028992B2, “Methods of treating muscular dystrophy” (BOARD OF REGENTS OF THE NEVADA SYSTEM OF HIGHER EDUCATION …, priority 2012, dated 2018).
Values joined by “and” are separate entries in the source; they are usually repeats but may differ in a detail not shown here. Equal entries are not always repeated.

System: α7 integrin promoter
Test: muscle cell-based assay: α7βgal+/− myoblasts/myotubes, LacZ reporter, β-galactosidase cleavage of FDG
Parameters: species or system mouse
Conditions: Myotubes; for Results in a α7+/− β-galactosidase assay, Myotubes, 0.5 uM: compound at 0.5 uM; for Results in a α7+/− β-galactosidase assay, Myotubes, 1 uM: compound at 1 uM; for Results in a α7+/− β-galactosidase assay, Myotubes, 5 uM: compound at 5 uM; for Results in a α7+/− β-galactosidase assay, Myotubes, 10 uM: compound at 10 uM; for Results in a α7+/− β-galactosidase assay, Myotubes, 20 uM: compound at 20 uM; for Results in a α7+/− β-galactosidase assay, Myotubes, 40 uM: compound at 40 uM
How it was run: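 Fluorescein generated from FDG by β-galactosidase reports α7 integrin promoter activity in differentiated myoblasts from α7+/− LacZ knock-in pups. Screening hits then went to dose-response, western blotting and a myostatin counterscreen.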

| Compound | Results in a α7+/− β-galactosidase assay, Myotubes, 0.5 uM | Results in a α7+/− β-galactosidase assay, Myotubes, 1 uM | Results in a α7+/− β-galactosidase assay, Myotubes, 5 uM | Results in a α7+/− β-galactosidase assay, Myotubes, 10 uM | Results in a α7+/− β-galactosidase assay, Myotubes, 20 uM | Results in a α7+/− β-galactosidase assay, Myotubes, 40 uM |
| --- | --- | --- | --- | --- | --- | --- |
| OC(c1nc2cc(F)ccc2[nH]1)C(O)c1nc2cc(F)ccc2[nH]1 (stereo not shown) [drawing 365] | 0.0667 | 0.1032 | 0.2081 | 0.01319 | −0.09026 | −0.08066 |
| COc1ccc(OC)c(NC(=O)CN2CCC(NC(=O)c3ccccc3C)CC2)c1 [drawing 366] | 0.003237 | 0.04584 | −0.09583 | −0.1153 | −0.1579 | −0.08927 |
| O=C(CCc1ccccc1)c1nnc(-c2ccccc2)o1 [drawing 367] | 0.117 | 0.1296 | −0.09921 | −0.1418 | −0.1125 | 0.05525 |
| COc1ccc(/N=N/c2ccc(N)nc2N)cc1 [drawing 368] | 0.1561 | 0.1699 | −0.00041 | −0.06379 | −0.1224 | −0.03271 |
| N=C(NOC(=O)c1cccc(C(F)(F)F)c1)c1cnccn1 [drawing 369] | 0.07542 | 0.07664 | −0.08801 | −0.1676 | −0.1858 | −0.1541 |
| CCOc1ccc2nc(Cl)sc2c1 [drawing 370] | −0.00103 | 0.001963 | −0.02718 | −0.04332 | −0.1345 | −0.219 |
| COc1ccc(CNC(=O)C2CCCN(S(=O)(=O)c3c(C)noc3/C=C/N(C)C)C2)cc1 (stereo not shown) [drawing 371] | 0.1862 | 0.2675 | −0.1068 | −0.1252 | −0.1996 | −0.2682 |
| CC(O)CNc1nc2c(c(=O)n(Cc3ccc(Br)cc3)c(=O)n2C)n1C (stereo not shown) [drawing 372] | 0.1594 | 0.164 | −0.05597 | −0.08357 | −0.2604 | −0.369 |
| COc1ccc(Cl)cc1NC(=O)c1cc(-c2cc(C)ccc2O)[nH]n1 [drawing 373] | 0.00543 | 0.04041 | −0.08884 | −0.1274 | −0.1168 | −0.2232 |
| CCC(C)C(CC)NC(=O)CSc1nnc(COc2ccc(Cl)cc2)o1 (stereo not shown) [drawing 374] | 0.09087 | 0.07758 | −0.09861 | −0.1776 | −0.01998 | −0.2485 |
| N#Cc1ccc(Sc2nc3ccccc3[nH]2)cc1C#N [drawing 376] | 0.09647 | 0.1219 | 0.01154 | −0.06084 | −0.00606 | −0.1145 |
| COc1cc(/C=C/CN2CCN(Cc3ccc(C)o3)C(CCO)C2)ccc1O (stereo not shown) [drawing 377] | – | 0.1027 and 0.08207 | – | – | – | – |
| COc1ccccc1C(=O)OCc1ccc2sc(C)nc2c1 [drawing 378] | −0.04468 | 0.06534 | 0.05342 | −0.1134 | −0.02544 | −0.1114 |
